In BindingDB's records for patent US10227350 (Gilead Sciences, 2019):

Target: Phosphatidylinositol 4,5-bisphosphate 3-kinase catalytic subunit beta isoform (Homo sapiens, UniProt P42338)
Test: TR-FRET Assay
Protocol: Class I PI3K isoforms were expressed and purified as heterodimeric recombinant proteins. All assay reagents and buffers for the TR-FRET assay were purchased from Millipore. […] The compounds were added to the assay solution and incubated for 30 minutes at 25° C.

Sequence of Phosphatidylinositol 4,5-bisphosphate 3-kinase catalytic subunit beta isoform (P42338 whole entry, canonical isoform): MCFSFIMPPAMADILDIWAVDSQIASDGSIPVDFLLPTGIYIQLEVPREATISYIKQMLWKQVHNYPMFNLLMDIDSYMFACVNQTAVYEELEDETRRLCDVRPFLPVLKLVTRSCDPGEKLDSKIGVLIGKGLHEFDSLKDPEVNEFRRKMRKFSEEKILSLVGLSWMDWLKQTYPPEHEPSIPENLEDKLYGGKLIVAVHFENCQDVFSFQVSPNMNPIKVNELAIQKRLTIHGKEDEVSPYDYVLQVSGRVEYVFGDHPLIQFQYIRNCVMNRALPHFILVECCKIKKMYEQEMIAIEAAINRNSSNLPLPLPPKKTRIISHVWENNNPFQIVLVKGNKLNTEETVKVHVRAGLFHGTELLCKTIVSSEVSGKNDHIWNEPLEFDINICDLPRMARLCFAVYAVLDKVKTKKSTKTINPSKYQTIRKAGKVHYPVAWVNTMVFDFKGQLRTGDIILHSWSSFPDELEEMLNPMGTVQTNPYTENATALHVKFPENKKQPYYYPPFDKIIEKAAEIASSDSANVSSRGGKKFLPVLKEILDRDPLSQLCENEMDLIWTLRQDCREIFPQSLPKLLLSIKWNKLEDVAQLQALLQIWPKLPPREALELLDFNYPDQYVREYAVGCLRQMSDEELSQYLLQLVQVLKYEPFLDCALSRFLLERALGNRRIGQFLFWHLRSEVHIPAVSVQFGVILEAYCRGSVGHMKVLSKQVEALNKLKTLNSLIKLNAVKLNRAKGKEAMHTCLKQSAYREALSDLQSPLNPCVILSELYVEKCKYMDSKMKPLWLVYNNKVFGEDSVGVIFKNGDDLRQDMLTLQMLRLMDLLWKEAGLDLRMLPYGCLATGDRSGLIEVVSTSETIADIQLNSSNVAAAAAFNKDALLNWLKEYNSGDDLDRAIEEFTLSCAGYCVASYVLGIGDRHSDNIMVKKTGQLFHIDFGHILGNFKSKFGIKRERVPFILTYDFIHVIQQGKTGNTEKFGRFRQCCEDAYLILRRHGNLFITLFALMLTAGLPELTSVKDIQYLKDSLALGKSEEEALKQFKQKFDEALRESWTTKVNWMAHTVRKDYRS

| IC50 | Structure (SMILES) |
| --- | --- |
| 5 nM | Cc1cc(-c2cc(-c3nnc[nH]3)c3nc(C)n(-c4ccnc5c(Cl)cccc45)c3c2)ccn1 [US10227350, Compound 40] |
| 4 nM | CCCc1nc2c(-c3nnc[nH]3)cc(-c3ccnc(N)c3F)cc2n1-c1ccnc2c(Cl)ccc(F)c12 [US10227350, Compound 84] |
